We go through three compounds from patent publication US10588316B2 (priority 2015, dated 2020).

Values joined by “and” are separate entries in the source; they are usually repeats but may differ in a detail not shown here. Equal entries are not always repeated.

Common to all, as to set-up: species or system wheat
Common to all, as to conditions: in vivo

Assay [1] concerns DON toxin.
The test system of assay [2] is DON toxin. This is another data set of the same source.
The test system of assay [3] is toxin synthesis capability of thalli.
For assay [4], the system named is DON toxin. The source holds these as a separate data set.
The test system of assay [5] is DON toxin. This is another data set of the same source.
In assay [6] the test system is DON toxin. This is another data set of the same source.

As to `OCC1=CC(N[C@H]2C[C@H](CO)[C@@H](OC3O[C@H](CO)[C@@H](O)[C@H](O)[C@H]3O)C(O)[C@H]2O)[C@H](O)[C@@H](O)C1O` (stereo partly shown) [Jinggangmycin, jinggangmycin A], in the assay on DON toxin [1], the “Grain Toxin Content” value is 2.89 μg/g of kernels and 3.24 μg/g of kernels and 3.86 μg/g of kernels and 4.2 μg/g of kernels and 4.77 μg/g of kernels. For the same compound, the “Grain Toxin Content mg of DON/kg of grain” value (from here on “Grain Toxin Content mg”) in the assay with DON toxin [2] was 2.86 mg of DON/kg of grain and 3.82 mg of DON/kg of grain and 4.02 mg of DON/kg of grain and 4.14 mg of DON/kg of grain.

In the case of `COC(=O)Nc1nc2ccccc2[nH]1` [Carbendazim, carbendazim], in assay [3], the “DON Synthesis Capability” value turned out to be 28.94. For the same compound, in the assay on DON toxin [4], the “toxin contamination level of grains” value is 4.4 mg/kg of grains. For the same compound, the “DON Reduction Percentage” value in the assay on DON toxin [5] is 55.00%. In the assay with DON toxin [6], the “Grain Toxin Content (mg of DON/Kg of grain)” value is 4.35 and the “Rate of Decrease in Toxin Content in Grains (%)” value was 32.7%. Besides, in the assay on DON toxin [2], the “Grain Toxin Content mg” value is listed as 2.95 mg of DON/kg of grain and the “Toxin Reduction Percentage %” value amounted to 34.73%.

In the case of Tebuconazole, the “DON Synthesis Capability” value in assay [3] was 19.88 and 18.35 and 18.95 and 19.02 and 19.41. Besides, the “Grain Toxin Content” value with DON toxin [1] was 4.02 μg/g of kernels and 3.29 μg/g of kernels and 2.14 μg/g of kernels and 2.08 μg/g of kernels. In the assay with DON toxin [2], the “Grain Toxin Content mg” value is 1.89 mg of DON/kg of grain and 2.14 mg of DON/kg of grain and 2.4 mg of DON/kg of grain and 2.8 mg of DON/kg of grain; the “Toxin Reduction Percentage %” value is 58.19% and 52.65% and 46.90% and 38.05%.
